# Results: publication PMC9823097, “Dysregulation of PRMT5 in chronic lymphocytic leukemia promotes progression with high risk of Richter’s transformation” (Nature Communications, 2023)
# “And” between values parts separate entries of the source, which are not always exact repeats. Equal entries are not always repeated.
# System: Eµ-PRMT5/TCL1 Cd19+Cd5+ spleen cells engrafted into immunocompetent C57/BL6J mice
# Assay: Adoptive transfer of Eµ-PRMT5/TCL1 spleen cells into C57/BL6J mice, treatment study
# Format: in vivo
# Description: For adoptive transfer, viable Cd19^+Cd5^+ cells (5 × 10^6) from the spleen of an Eµ-PRMT5/TCL1 transgenic mouse with active CLL-like leukemia (>80% circulating in peripheral blood) and palpable splenomegaly were engrafted by tail vein into immunocompetent C57/BL6J female mice. Engrafted mice were randomly assigned to treatment conditions: PRT382 10 mg/kg, EPZ015666 50 mg/kg, or vehicle (0.5% methylcellulose, 0.1% tween) at 1-week post engraftment. All treatments were administered by oral gavage 4 contiguous days per week (Mon-Thurs). Predefined euthanasia criteria for mice in all transgenic colonies and murine transplant models were followed and included lethargy, impaired motility, splenomegaly, enlarged lymph nodes and/or superficial lymphoid tumors greater than 1.6 cm in diameter (or cumulative diameter of 1.6 cm if multiple tumors), decrease in body weight (>20%), ruffled fur, hunched back, failure to nest, and loss of appetite.
structure (smiles),measurement,setting,value
O=C(NC[C@H](O)CN1CCc2ccccc2C1)c1cc(NC2COC2)ncn1 [EPZ015666],Week 1 CD19+/B220dim,"Figure 7F, per mouse, week 1, in % (unit assumed)",11.48 and 18.62 and 27.54 and 11.19 and 10.12 and 10.58 and 15.76 and 16.07 and 10.74
same,Week 2 CD19+/B220dim,"Figure 7F, per mouse, week 2, in % (unit assumed)",15.67 and 34.32 and 54.88 and 26.83 and 24.62 and 12.62 and 27.46 and 30.9 and 21.08
same,Week 3 CD19+/B220dim,"Figure 7F, per mouse, week 3, in % (unit assumed)",36.29 and 68.26 and 63.64 and 49.66 and 47.13 and 26.83 and 51.14 and 52.04 and 25.17
same,Week 4 CD19+/B220dim,"Figure 7F, per mouse, week 4, in % (unit assumed)",56.34 and 75.81 and 60.54 and 71.56 and 63.33 and 48.69 and 69.46 and 71.25 and 53.76
same,Week 5 CD19+/B220dim,"Figure 7F, per mouse, week 5",50.26 and 79.76 and 83.28 and 82.04 and 59.53 and 59.67 and 70.88 and 81.41 and 79.52
same,Week 6 CD19+/B220dim,"Figure 7F, per mouse, week 6, in % (unit assumed)",79.53 and 74.33 and 84.12 and 75.35 and 79.18 and 56.6 and 82.56 and 74.54 and 89.39
same,Week 7 CD19+/B220dim,"Figure 7F, per mouse, week 7, in % (unit assumed)",80.7 and 87.13 and 89.6 and 89.4 and 86.59 and 66 and 85.98 and 83.54 and 93.2
same,Week 8 CD19+/B220dim,"Figure 7F, per mouse, week 8",84.94 and 92.1 and 90.67 and 85.36 and 88.33 and 44.29 and 85.8 and 89.46
same,Week 9 CD19+/B220dim,"Figure 7F, per mouse, week 9",85.98 and 79.2 and 88.88
same,Week 10 CD19+/B220dim,"Figure 7F, per mouse, week 10, in % (unit assumed)",88.79
same,Endpoint,"Figure 7G, survival endpoint indicator, per mouse",1
same,Days since enrollment,"Figure 7G, survival, per mouse",64 days and 50 days and 52 days and 51 days and 58 days and 45 days
same,Spleen weight,"Figure 7H, per mouse",1.7 g and 2.27 g and 2.35 g and 2.58 g and 2.18 g and 1.84 g and 2.11 g and 1.38 g
same,Median survival post-enrollment,"PRT382 10 mg/kg, EPZ015666 50 mg/kg, oral gavage 4 contiguous days per week",51 days
same,Spleen volume,"individual mice, Supplemental Figure 6F",1489.45 mm3 and 4749.69 mm3 and 2852.93 mm3 and 3279.99 mm3 and 2090.66 mm3 and 1726.14 mm3 and 2169.7 mm3 and 1234.53 mm3
